Measured values: the CheMixHub viscosity set
± gives the uncertainty stated by the source.

Experiment: xn = mol fraction of the nth substance listed

CCOCCOCCO + CCCO
viscosity [mPa·s], 101 kPa
Conditions	298.15 K	308.15 K	318.15 K
x1 = 0.0114	1.94 ± 0.018	1.509 ± 0.014	1.233 ± 0.012
x1 = 0.0195	1.939 ± 0.018	1.508 ± 0.014	1.233 ± 0.011
x1 = 0.0356	1.947 ± 0.018	1.516 ± 0.014	1.248 ± 0.012
x1 = 0.0469	1.955 ± 0.018	1.517 ± 0.014	1.249 ± 0.012
x1 = 0.0557	1.95 ± 0.018	1.526 ± 0.014	1.259 ± 0.012
x1 = 0.0883	1.972 ± 0.018	1.546 ± 0.014	1.277 ± 0.012
x1 = 0.1002	1.992 ± 0.018	1.558 ± 0.015	1.281 ± 0.012
x1 = 0.136	2.017 ± 0.019	1.588 ± 0.015	1.308 ± 0.012
x1 = 0.1447	2.04 ± 0.019	1.589 ± 0.015	1.316 ± 0.012
x1 = 0.168	2.051 ± 0.019	1.617 ± 0.015	1.341 ± 0.013
x1 = 0.245	2.184 ± 0.021	1.701 ± 0.017	1.409 ± 0.014
x1 = 0.2877	2.294 ± 0.023	1.756 ± 0.018	1.456 ± 0.014
x1 = 0.3493	2.473 ± 0.025	1.868 ± 0.019	1.567 ± 0.016
x1 = 0.411	2.616 ± 0.027	1.984 ± 0.021	1.657 ± 0.017
x1 = 0.4745	2.761 ± 0.029	2.1 ± 0.022	1.752 ± 0.018
x1 = 0.536	2.889 ± 0.031	2.191 ± 0.024	1.822 ± 0.02
x1 = 0.6067	3.022 ± 0.034	2.29 ± 0.026	1.903 ± 0.021
x1 = 0.6682	3.138 ± 0.036	2.378 ± 0.028	1.978 ± 0.022
x1 = 0.7228	3.248 ± 0.038	2.453 ± 0.029	2.044 ± 0.024
x1 = 0.7879	3.383 ± 0.041	2.55 ± 0.031	2.118 ± 0.025
x1 = 0.8412	3.494 ± 0.043	2.622 ± 0.033	2.178 ± 0.027
x1 = 0.894	3.6 ± 0.046	2.695 ± 0.034	2.238 ± 0.028
x1 = 0.9378	3.694 ± 0.048	2.76 ± 0.036	2.281 ± 0.029
x1 = 0.9751	3.755 ± 0.049	2.813 ± 0.037	2.324 ± 0.03

ClC(Cl)=C(Cl)Cl + Cc1ccccc1
303.15 K, 101 kPa
Conditions	viscosity [mPa·s]
x1 = 0.1502	0.551 ± 0.013
x1 = 0.2552	0.574 ± 0.006
x1 = 0.2612	0.574 ± 0.012
x1 = 0.3392	0.597 ± 0.006
x1 = 0.3745	0.599 ± 0.012
x1 = 0.4608	0.621 ± 0.006
x1 = 0.4715	0.629 ± 0.011
x1 = 0.5666	0.662 ± 0.01
x1 = 0.5759	0.652 ± 0.006
x1 = 0.6428	0.691 ± 0.01
x1 = 0.6834	0.688 ± 0.007
x1 = 0.6905	0.708 ± 0.01
x1 = 0.7448	0.706 ± 0.007
x1 = 0.7529	0.73 ± 0.009
x1 = 0.8376	0.76 ± 0.009
x1 = 0.8395	0.738 ± 0.007
x1 = 0.9336	0.793 ± 0.008

ClC(Cl)=C(Cl)Cl + CC(C)CO
303.15 K, 101.33 kPa
Conditions	viscosity [mPa·s]
x1 = 0.1124	2.28 ± 0.014
x1 = 0.2157	1.855 ± 0.012
x1 = 0.3156	1.552 ± 0.01
x1 = 0.4057	1.353 ± 0.009
x1 = 0.5099	1.182 ± 0.008
x1 = 0.5996	1.077 ± 0.007
x1 = 0.7145	0.977 ± 0.007
x1 = 0.8032	0.918 ± 0.006
x1 = 0.908	0.857 ± 0.006

COCC(C)O (configuration not stated) + CC(=O)CC(C)C
298.15 K, 101 kPa
Conditions	viscosity [mPa·s]
x2 = 0.1057	1.373 ± 0.013
x2 = 0.2037	1.167 ± 0.011
x2 = 0.3075	1.006 ± 0.01
x2 = 0.4185	0.875 ± 0.009
x2 = 0.5295	0.774 ± 0.008
x2 = 0.6413	0.696 ± 0.007
x2 = 0.7612	0.63 ± 0.006
x2 = 0.8745	0.582 ± 0.006

C1CCC2CCCCC2C1 (configuration not stated) + C1CCCCC1
298.15 K, 101 kPa
Conditions	viscosity [mPa·s]
x1 = 0.1473	1.061 ± 0.014
x1 = 0.3151	1.26 ± 0.016
x1 = 0.5054	1.48 ± 0.019
x1 = 0.7334	1.77 ± 0.023

CCCCCCCC + CCCO
Conditions	viscosity [mPa·s]
293.15 K, 101.3 kPa, x2 = 0.2756	0.602 ± 0.011
293.15 K, 101.3 kPa, x2 = 0.4165	0.699 ± 0.012
293.15 K, 101.3 kPa, x2 = 0.5351	0.825 ± 0.014
293.15 K, 101.3 kPa, x2 = 0.6355	0.967 ± 0.016
293.15 K, 101.3 kPa, x2 = 0.6822	1.039 ± 0.017
293.15 K, 101.3 kPa, x2 = 0.7221	1.128 ± 0.018
293.15 K, 101.3 kPa, x2 = 0.7934	1.295 ± 0.02
293.15 K, 101.3 kPa, x2 = 0.8726	1.545 ± 0.024
293.15 K, 101.3 kPa, x2 = 0.9243	1.746 ± 0.027
293.15 K, 101.3 kPa, x2 = 0.9752	2.003 ± 0.03
298.15 K, 101.3 kPa, x2 = 0.114	0.511 ± 0.009
298.15 K, 101.3 kPa, x2 = 0.2756	0.561 ± 0.01
298.15 K, 101.3 kPa, x2 = 0.4165	0.645 ± 0.011
298.15 K, 101.3 kPa, x2 = 0.5351	0.752 ± 0.013
298.15 K, 101.3 kPa, x2 = 0.6356	0.875 ± 0.015
298.15 K, 101.3 kPa, x2 = 0.6823	0.939 ± 0.015
298.15 K, 101.3 kPa, x2 = 0.7221	1.016 ± 0.016
298.15 K, 101.3 kPa, x2 = 0.7934	1.162 ± 0.019
298.15 K, 101.3 kPa, x2 = 0.8726	1.403 ± 0.022
298.15 K, 101.3 kPa, x2 = 0.9243	1.554 ± 0.024
298.15 K, 101.3 kPa, x2 = 0.9752	1.79 ± 0.027
298.15 K, 101.33 kPa, x2 = 0.1018	0.535 ± 0.008
298.15 K, 101.33 kPa, x2 = 0.1778	0.558 ± 0.009
298.15 K, 101.33 kPa, x2 = 0.3151	0.617 ± 0.01
298.15 K, 101.33 kPa, x2 = 0.4271	0.696 ± 0.011
298.15 K, 101.33 kPa, x2 = 0.5512	0.809 ± 0.013
298.15 K, 101.33 kPa, x2 = 0.6801	0.987 ± 0.016
298.15 K, 101.33 kPa, x2 = 0.7955	1.227 ± 0.021
298.15 K, 101.33 kPa, x2 = 0.9677	1.824 ± 0.034
303.15 K, 101.3 kPa, x2 = 0.114	0.482 ± 0.009
303.15 K, 101.3 kPa, x2 = 0.2756	0.522 ± 0.01
303.15 K, 101.3 kPa, x2 = 0.4165	0.592 ± 0.011
303.15 K, 101.3 kPa, x2 = 0.5351	0.686 ± 0.012
303.15 K, 101.3 kPa, x2 = 0.6355	0.795 ± 0.013
303.15 K, 101.3 kPa, x2 = 0.6822	0.857 ± 0.014
303.15 K, 101.3 kPa, x2 = 0.7221	0.917 ± 0.015
303.15 K, 101.3 kPa, x2 = 0.7934	1.045 ± 0.017
303.15 K, 101.3 kPa, x2 = 0.8726	1.227 ± 0.019
303.15 K, 101.3 kPa, x2 = 0.9243	1.383 ± 0.022
303.15 K, 101.3 kPa, x2 = 0.9752	1.579 ± 0.024
308.15 K, 101.3 kPa, x2 = 0.0417	0.458 ± 0.009
308.15 K, 101.3 kPa, x2 = 0.1389	0.466 ± 0.009
308.15 K, 101.3 kPa, x2 = 0.2682	0.497 ± 0.009
308.15 K, 101.3 kPa, x2 = 0.3477	0.528 ± 0.01
308.15 K, 101.3 kPa, x2 = 0.4105	0.558 ± 0.01
308.15 K, 101.3 kPa, x2 = 0.4648	0.591 ± 0.011
308.15 K, 101.3 kPa, x2 = 0.525	0.636 ± 0.011
308.15 K, 101.3 kPa, x2 = 0.5911	0.694 ± 0.012
308.15 K, 101.3 kPa, x2 = 0.6512	0.757 ± 0.013
308.15 K, 101.3 kPa, x2 = 0.7011	0.818 ± 0.014
308.15 K, 101.3 kPa, x2 = 0.7397	0.873 ± 0.014
308.15 K, 101.3 kPa, x2 = 0.7864	0.95 ± 0.016
308.15 K, 101.3 kPa, x2 = 0.8382	1.05 ± 0.017
308.15 K, 101.3 kPa, x2 = 0.8827	1.153 ± 0.018
308.15 K, 101.3 kPa, x2 = 0.9289	1.279 ± 0.02

O=[N+]([O-])c1ccccc1 + c1ccccc1
101 kPa
Conditions	viscosity [mPa·s]
298.15 K, x2 = 0.2096	1.417 ± 0.018
298.15 K, x2 = 0.4874	1.017 ± 0.013
298.15 K, x2 = 0.8636	0.681 ± 0.009
303.15 K, x1 = 0.0887	0.6013 ± 0.0047
303.15 K, x1 = 0.1796	0.654 ± 0.005
303.15 K, x1 = 0.2737	0.7103 ± 0.0054
303.15 K, x1 = 0.3694	0.7841 ± 0.0059
303.15 K, x1 = 0.4673	0.865 ± 0.0065
303.15 K, x1 = 0.5682	0.9589 ± 0.0071
303.15 K, x1 = 0.6723	1.075 ± 0.0079
303.15 K, x1 = 0.7788	1.218 ± 0.0088
303.15 K, x1 = 0.8874	1.39 ± 0.01

CCCCCO + CCCCCC
viscosity [mPa·s], 101 kPa
Conditions	298.15 K	313.15 K
x1 = 0.0122	0.302 ± 0.004	–
x1 = 0.0218	0.305 ± 0.004	–
x1 = 0.0272	0.307 ± 0.004	–
x1 = 0.0424	0.312 ± 0.004	–
x1 = 0.0642	0.321 ± 0.004	–
x1 = 0.0706	0.324 ± 0.004	–
x1 = 0.0889	0.333 ± 0.004	–
x1 = 0.0978	0.337 ± 0.004	–
x1 = 0.124	0.35 ± 0.004	–
x1 = 0.1377	0.357 ± 0.004	–
x1 = 0.1474	0.362 ± 0.004	–
x1 = 0.1677	0.371 ± 0.004	0.318 ± 0.004
x1 = 0.1838	0.382 ± 0.004	–
x1 = 0.1966	0.39 ± 0.004	–
x1 = 0.2033	0.395 ± 0.004	–
x1 = 0.2353	0.423 ± 0.005	0.356 ± 0.004
x1 = 0.3342	0.518 ± 0.005	0.427 ± 0.005
x1 = 0.4494	0.677 ± 0.007	0.545 ± 0.006
x1 = 0.5434	0.874 ± 0.009	0.668 ± 0.007
x1 = 0.6407	1.19 ± 0.011	0.893 ± 0.009
x1 = 0.7344	1.555 ± 0.015	1.134 ± 0.011
x1 = 0.8437	2.164 ± 0.02	1.5 ± 0.014
x1 = 0.9129	2.715 ± 0.025	1.843 ± 0.017

O=[N+]([O-])c1ccccc1 + CC(C)CO
viscosity [mPa·s], 101.33 kPa
Conditions	x1 = 0.063	x1 = 0.1521	x1 = 0.2051	x1 = 0.2864	x1 = 0.376	x1 = 0.4746	x1 = 0.6038	x1 = 0.7066	x1 = 0.8442
298.15 K	2.804 ± 0.13	2.416 ± 0.11	2.228 ± 0.1	2.054 ± 0.094	1.884 ± 0.087	1.811 ± 0.084	1.755 ± 0.082	1.701 ± 0.08	1.679 ± 0.079
303.15 K	2.423 ± 0.11	2.072 ± 0.095	1.956 ± 0.09	1.819 ± 0.084	1.677 ± 0.078	1.596 ± 0.075	1.538 ± 0.072	1.495 ± 0.071	1.517 ± 0.072
